Where two headings read alike, the source gives them in different places.
Legend:
Experiment in all cases: cell cytotoxicity EC50, CellTiter Glo, SCLC cell line
Assay type in all cases: cell-based, human
SHP-77 = system: SHP-77
Description: (§1) The SCLC and leukemia/lymphoma cell lines listed below were obtained from the American Type Culture Collection (Manassas, Va.), Deutsche Sammlung von Mikroorganismen und Zellkulturen (DSMZ, Braunsweig, Germany), or were the generous gift from Dr. Louis Staudt (National Cancer Institute) and were cultured as described in Tse, C., Shoemaker, A. R., Adickes, J., et al., “ABT-263: a potent and orally bioavailable Bcl-2 family inhibitor,” Cancer Res 2008; 68: 3421-3428; and Tahir, S. K., Yang, X., Anderson, M. G., et al., “Influence of Bcl-2 family members on the cellular response of small-cell lung cancer cell lines to ABT-737,” Cancer Res 2007; 67: 1176-1183.
(§2) Cells were treated at 10,000 or 50,000 cells per well for adherent or suspension cells, respectively, in 96-well microtiter plates in the presence of 10% human serum for 48 hours with or without ABT-263, in a humidified chamber with 5% CO2. ABT-263 was synthesized as previously described in Tse, C., Shoemaker, A. R., Adickes, J., et al., “ABT-263: a potent and orally bioavailable Bcl-2 family inhibitor,” Cancer Res 2008; 68: 3421-3428; and Oltersdorf, T., Elmore, S. W., Shoemaker, A. R., et al., “An inhibitor of Bcl-2 family proteins induces regression of solid tumours,” Nature 2005; 435: 677-681, and cell cytotoxicity EC50 values were assessed using CellTiter Glo (Promega, Madison Wis.).

NCI-H1963 = system: NCI-H1963
Description: as §1, §2

NCI-H889 = system: NCI-H889
Description: as §1, §2

NCI-H1436 = system: NCI-H1436
Description: as §1, §2

DMS 114 = system: DMS 114
Description: as §1, §2

NCI-H2081 = system: NCI-H2081
Description: as §1, §2

NCI-H510 = system: NCI-H510
Description: as §1, §2

NCI-H526 = system: NCI-H526
Description: as §1, §2

NCI-H1930 = system: NCI-H1930
Description: as §1, §2

NCI-H2107 = system: NCI-H2107
Description: as §1, §2

NCI-H1688 = system: NCI-H1688
Description: as §1, §2

NCI-H209 = system: NCI-H209
Description: as §1, §2

NCI-H345 = system: NCI-H345
Description: as §1, §2

NCI-H1836 = system: NCI-H1836
Description: as §1, §2

NCI-211 = system: NCI-211
Description: as §1, §2

NCI-1048 = system: NCI-1048
Description: as §1, §2

NCI-1417 = system: NCI-1417
Description: as §1, §2

DMS79 = system: DMS79
Description: as §1, §2

H69AR = system: H69AR
Description: as §1, §2

NCI-H187 = system: NCI-H187
Description: as §1, §2

NCI-H740 = system: NCI-H740
Description: as §1, §2

SW 1271 = system: SW 1271
Description: as §1, §2

[1] = 10% human serum, 48 hours, read-out: EC50
[2] = Homo sapiens, read-out: Response Designation

## CC1(C)CCC(c2ccc(Cl)cc2)=C(CN2CCN(c3ccc(C(=O)NS(=O)(=O)c4ccc(N[C@H](CCN5CCOCC5)CSc5ccccc5)c(S(=O)(=O)C(F)(F)F)c4)cc3)CC2)C1 [ABT-263, N-(4-(4-((2-(4-chlorophenyl)-5,5-dimethyl-1-cyclohex-1-en-1-yl)methyl)piperazin-1-yl)benzoyl)-4-(((1R)-3-(morpholin-4-yl)-1-((phenylsulfanyl)methyl)propyl)amino)-3-((trifluoromethyl)sulfonyl)benzenesulfonamide]
SHP-77; Homo sapiens, SHP77, read-out: Response Designation
  EC50: ≤ 4.1 µM
SHP-77; SHP77, 10% human serum, 48 hours, read-out: EC50
  EC50: 3.9 µM
NCI-H1963; [1]
  EC50: 180 nM
NCI-H1963; [2]
  EC50: ≤ 4100 nM
NCI-H889; [1]
  EC50: 140 nM
NCI-H889; [2]
  EC50: ≤ 4100 nM
NCI-H1436; [1]
  EC50: 1000 nM
NCI-H1436; [2]
  EC50: ≤ 4100 nM
DMS 114; [1]
  EC50: 33.9 µM
DMS 114; [2]
  EC50: > 4.1 µM
NCI-H2081; [1]
  EC50: 12 µM
NCI-H2081; [2]
  EC50: > 4.1 µM
NCI-H510; [1]
  EC50: 1220 nM
NCI-H510; [2]
  EC50: ≤ 4100 nM
NCI-H526; [1]
  EC50: 12.6 µM
NCI-H526; [2]
  EC50: > 4.1 µM
NCI-H1930; [1]
  EC50: 3000 nM
NCI-H1930; [2]
  EC50: ≤ 4100 nM
NCI-H2107; [1]
  EC50: 300 nM
NCI-H2107; [2]
  EC50: ≤ 4100 nM
NCI-H1688; [1]
  EC50: 8.07 µM
NCI-H1688; [2]
  EC50: > 4.1 µM
NCI-H209; [1]
  EC50: 1150 nM
NCI-H209; [2]
  EC50: ≤ 4100 nM
NCI-H345; [1]
  EC50: 2160 nM
NCI-H345; [2]
  EC50: ≤ 4100 nM
NCI-H1836; [1]
  EC50: 400 nM
NCI-H1836; [2]
  EC50: ≤ 4100 nM
NCI-211; [1]
  EC50: 410 nM
NCI-211; [2]
  EC50: ≤ 4100 nM
NCI-1048; [1]
  EC50: 2860 nM
NCI-1048; [2]
  EC50: ≤ 4100 nM
NCI-1417; [1]
  EC50: 360 nM
NCI-1417; [2]
  EC50: ≤ 4100 nM
DMS79; DMS-79, 10% human serum, 48 hours, read-out: EC50
  EC50: 1900 nM
DMS79; Homo sapiens, DMS-79, read-out: Response Designation
  EC50: ≤ 4100 nM
H69AR; [1]
  EC50: 22.3 µM
H69AR; [2]
  EC50: > 4.1 µM
NCI-H187; [1]
  EC50: 210 nM
NCI-H187; [2]
  EC50: ≤ 4100 nM
NCI-H740; [1]
  EC50: > 10 µM
NCI-H740; [2]
  EC50: > 4.1 µM
SW 1271; Homo sapiens, SW1271, read-out: Response Designation
  EC50: > 4.1 µM
SW 1271; SW1271, 10% human serum, 48 hours, read-out: EC50
  EC50: 33.9 µM

— US20100028889A1, “COMPANION DIAGNOSTIC ASSAYS FOR CANCER THERAPY” (ABBOTT LABORATORIES, priority 2006, published 2010)
